Values after ≈ are worked out from the molar mass of the structure shown.
Columns and labels:
[1] = from CO[C@](C)(C[C@@H](C)CN(C)[C@H](CO)CNC(=O)OCc1ccccc1)[C@H](O[C@@H]1O[C@H](C)C[C@H](N(C)C)[C@H]1OC(=O)c1ccccc1)[C@@H](C)C1=C(C)C(=O)OC(C)(C)O1; ester bond; chlorobenzene; 4.0 mM; 165.0 °C; 20.0 h
K. pneumoniae MP-546 = experiment: MIC determination by CLSI broth dilution, K. pneumoniae MP-546; format: cell-based; details: Klebsiella pneumoniae, MP546, CLSI broth dilution; strain MP-546
E. coli MP-4 = experiment: MIC determination by CLSI broth dilution, E. coli MP-4; format: cell-based; details: Escherichia coli, MP4, CLSI broth dilution; strain MP-4
P. aeruginosa MP-3 = experiment: MIC determination by CLSI broth dilution, P. aeruginosa MP-3; format: cell-based; details: Pseudomonas aeruginosa, MP3, strain MP-3
S. aureus MP-12 = experiment: microbe, parasite or virus in culture; format: cell-based; details: Staphylococcus aureus, MP12, read-out: MIC S. aureus MP-12
A. baumannii MP-15 = experiment: MIC determination by CLSI broth dilution, A. baumannii MP-15; format: cell-based; details: Acinetobacter baumannii, MP15, strain MP-15, read-out: MIC A. baumanii MP-15
K. pneumoniae MP-648 = experiment: MIC determination by CLSI broth dilution, K. pneumoniae MP-648; format: cell-based; details: Klebsiella pneumoniae, MP648, CLSI broth dilution; strain MP-648

SMILES	ring closure, yield of all isomers [1] [%]	MIC (K. pneumoniae MP-546) [mg/L]	MIC (E. coli MP-4) [mg/L]	MIC (P. aeruginosa MP-3) [mg/L]	MIC (S. aureus MP-12) [mg/L]	MIC (A. baumannii MP-15) [mg/L]	MIC (K. pneumoniae MP-648) [mg/L]
CO[C@]1(C)C[C@@H](C)CN(C)[C@@H](CNC(=O)OCc2ccccc2)COC(=O)C(C)C(=O)[C@H](C)[C@H]1O[C@@H]1O[C@H](C)C[C@H](N(C)C)[C@H]1OC(=O)c1ccccc1 (stereo partly shown)	82	–	–	–	–	–	–
CCCN1C[C@H](C)C[C@@](C)(OC)[C@H](O[C@@H]2O[C@H](C)C[C@H](N(C)C)[C@H]2O)[C@@H](C)C(=O)C(C)(C)C(=O)OC[C@H]1CCCN1CCc2ncncc2C1 [Compound 182, (3R,6R,8R,9R,10R)-3-(3-(7,8-dihydropyrido[4,3-d]pyrimidin-6 (5H)-yl)propyl)-9-(((2S,3R,4S,6R)-4-(dimethylamino)-3-hydroxy-6-methyltetrahydro-2H-pyran-2-yl)oxy)-8-methoxy-6,8,10,12,12-pentamethyl-4-propyl-1-oxa-4-azacyclotridecane-11,13-dione]	–	4 to 32 (≈ 5.68 to 45.5 µM)	< 4	> 32	4 to 32 (≈ 5.68 to 45.5 µM)	> 32	4 to 32 (≈ 5.68 to 45.5 µM)
